Assay results reported in ChEMBL document CHEMBL4507261, “Data for DCP probe A-192621” (2021).

Legend:
[1] = biological target: Dual specificity tyrosine-phosphorylation-regulated kinase 2 (Homo sapiens) (UniProt Q92630); conditions: Compound concentration 1000.0 nM
[2] = biological target: Hepatocyte growth factor receptor (Homo sapiens) (UniProt P08581); conditions: Compound concentration 1000.0 nM
[3] = biological target: Mitogen-activated protein kinase kinase kinase 2 (Homo sapiens) (UniProt Q9Y2U5); conditions: Compound concentration 1000.0 nM
[4] = biological target: Mitogen-activated protein kinase kinase kinase 11 (Homo sapiens) (UniProt Q16584); conditions: Compound concentration 1000.0 nM
[5] = biological target: Ankyrin repeat and protein kinase domain-containing protein 1 (Homo sapiens) (UniProt Q8NFD2); conditions: Compound concentration 1000.0 nM
Ankyrin repeat and protein kinase domain-containing protein 1 (Homo sapiens), sequence (Q8NFD2 whole entry, the tested form may be a part): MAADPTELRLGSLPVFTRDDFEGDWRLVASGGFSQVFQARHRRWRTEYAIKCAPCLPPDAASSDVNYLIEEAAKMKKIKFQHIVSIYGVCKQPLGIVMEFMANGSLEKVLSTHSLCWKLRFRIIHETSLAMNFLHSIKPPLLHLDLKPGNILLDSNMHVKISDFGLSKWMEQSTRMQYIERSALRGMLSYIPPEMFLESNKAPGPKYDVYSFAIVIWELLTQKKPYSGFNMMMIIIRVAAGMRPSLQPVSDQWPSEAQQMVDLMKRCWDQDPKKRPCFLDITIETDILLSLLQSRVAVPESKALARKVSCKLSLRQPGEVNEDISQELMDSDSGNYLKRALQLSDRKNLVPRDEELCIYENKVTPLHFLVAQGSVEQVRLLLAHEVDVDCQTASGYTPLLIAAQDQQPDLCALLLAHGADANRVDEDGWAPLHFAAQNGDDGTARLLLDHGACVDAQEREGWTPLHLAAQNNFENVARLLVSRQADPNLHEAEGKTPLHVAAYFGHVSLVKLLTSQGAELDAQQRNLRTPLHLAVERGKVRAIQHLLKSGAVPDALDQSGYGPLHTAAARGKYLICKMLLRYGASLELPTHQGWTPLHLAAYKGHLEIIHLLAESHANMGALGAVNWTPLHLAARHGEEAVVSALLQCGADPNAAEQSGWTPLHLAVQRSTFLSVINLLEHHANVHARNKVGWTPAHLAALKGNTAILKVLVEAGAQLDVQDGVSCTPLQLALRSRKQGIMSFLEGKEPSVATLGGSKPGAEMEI

[6] = biological target: Serine/threonine-protein kinase 32A (Homo sapiens) (UniProt Q8WU08); conditions: Compound concentration 1000.0 nM
[7] = biological target: Tyrosine-protein kinase CSK (Homo sapiens) (UniProt P41240); conditions: Compound concentration 1000.0 nM
[8] = system: eIF-2-alpha kinase GCN2 (Homo sapiens), Q9P2K8 [S808G]; conditions: Compound concentration 1000.0 nM
[9] = biological target: Serine/threonine-protein kinase WNK4 (Homo sapiens) (UniProt Q96J92); conditions: Compound concentration 1000.0 nM
[10] = biological target: Dual specificity mitogen-activated protein kinase kinase 7 (Homo sapiens) (UniProt O14733); conditions: Compound concentration 1000.0 nM
[11] = biological target: Hormonally up-regulated neu tumor-associated kinase (Homo sapiens) (UniProt P57058); conditions: Compound concentration 1000.0 nM
Hormonally up-regulated neu tumor-associated kinase (Homo sapiens), sequence (P57058 whole entry): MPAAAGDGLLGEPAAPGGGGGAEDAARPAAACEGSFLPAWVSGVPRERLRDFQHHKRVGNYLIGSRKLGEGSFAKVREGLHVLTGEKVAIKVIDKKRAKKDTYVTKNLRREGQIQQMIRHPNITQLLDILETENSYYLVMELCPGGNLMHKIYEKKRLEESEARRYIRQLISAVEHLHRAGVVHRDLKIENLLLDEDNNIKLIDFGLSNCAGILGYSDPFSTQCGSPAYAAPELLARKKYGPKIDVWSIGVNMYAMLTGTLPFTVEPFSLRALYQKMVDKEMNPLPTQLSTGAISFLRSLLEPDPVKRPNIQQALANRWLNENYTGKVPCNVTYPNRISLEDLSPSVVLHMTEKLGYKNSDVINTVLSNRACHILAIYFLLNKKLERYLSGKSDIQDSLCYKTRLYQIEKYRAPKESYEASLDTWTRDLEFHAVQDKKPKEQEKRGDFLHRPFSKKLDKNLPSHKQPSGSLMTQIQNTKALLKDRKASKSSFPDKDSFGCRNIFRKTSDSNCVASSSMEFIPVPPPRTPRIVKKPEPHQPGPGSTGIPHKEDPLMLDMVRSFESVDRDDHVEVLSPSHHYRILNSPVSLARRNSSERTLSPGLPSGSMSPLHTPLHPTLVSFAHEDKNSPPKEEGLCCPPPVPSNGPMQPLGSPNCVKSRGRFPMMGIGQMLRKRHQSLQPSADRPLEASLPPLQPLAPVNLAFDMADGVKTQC

[12] = biological target: Aurora kinase C (Homo sapiens) (UniProt Q9UQB9); conditions: Compound concentration 1000.0 nM
[13] = biological target: Phosphorylase b kinase gamma catalytic chain, skeletal muscle/heart isoform (Homo sapiens) (UniProt Q16816); conditions: Compound concentration 1000.0 nM
[14] = biological target: Mitogen-activated protein kinase kinase kinase 4 (Homo sapiens) (UniProt Q9Y6R4); conditions: Compound concentration 1000.0 nM
[15] = biological target: Kappa-type opioid receptor (Homo sapiens) (UniProt P41145); assay: kappa (h) (KOP) Eurofins-Cerep binding assay; parameters: ligand concentration 0.5 nM; conditions: filed as agonist, Compound concentration 10.0 uM
[16] = biological target: D(1A) dopamine receptor (Homo sapiens) (UniProt P21728); assay: D1 (h) Eurofins-Cerep binding assay; parameters: ligand concentration 0.3 nM; conditions: filed as antagonist, Compound concentration 10.0 uM
[17] = system: Mast/stem cell growth factor receptor Kit (Homo sapiens), P10721 [D816V]; conditions: Compound concentration 1000.0 nM
[18] = system: Tyrosine-protein kinase ABL1 (Homo sapiens), P00519 [T315I]; conditions: Compound concentration 1000.0 nM
[19] = biological target: Platelet-derived growth factor receptor beta (Homo sapiens) (UniProt P09619); conditions: Compound concentration 1000.0 nM
Platelet-derived growth factor receptor beta (Homo sapiens), sequence (P09619 whole entry): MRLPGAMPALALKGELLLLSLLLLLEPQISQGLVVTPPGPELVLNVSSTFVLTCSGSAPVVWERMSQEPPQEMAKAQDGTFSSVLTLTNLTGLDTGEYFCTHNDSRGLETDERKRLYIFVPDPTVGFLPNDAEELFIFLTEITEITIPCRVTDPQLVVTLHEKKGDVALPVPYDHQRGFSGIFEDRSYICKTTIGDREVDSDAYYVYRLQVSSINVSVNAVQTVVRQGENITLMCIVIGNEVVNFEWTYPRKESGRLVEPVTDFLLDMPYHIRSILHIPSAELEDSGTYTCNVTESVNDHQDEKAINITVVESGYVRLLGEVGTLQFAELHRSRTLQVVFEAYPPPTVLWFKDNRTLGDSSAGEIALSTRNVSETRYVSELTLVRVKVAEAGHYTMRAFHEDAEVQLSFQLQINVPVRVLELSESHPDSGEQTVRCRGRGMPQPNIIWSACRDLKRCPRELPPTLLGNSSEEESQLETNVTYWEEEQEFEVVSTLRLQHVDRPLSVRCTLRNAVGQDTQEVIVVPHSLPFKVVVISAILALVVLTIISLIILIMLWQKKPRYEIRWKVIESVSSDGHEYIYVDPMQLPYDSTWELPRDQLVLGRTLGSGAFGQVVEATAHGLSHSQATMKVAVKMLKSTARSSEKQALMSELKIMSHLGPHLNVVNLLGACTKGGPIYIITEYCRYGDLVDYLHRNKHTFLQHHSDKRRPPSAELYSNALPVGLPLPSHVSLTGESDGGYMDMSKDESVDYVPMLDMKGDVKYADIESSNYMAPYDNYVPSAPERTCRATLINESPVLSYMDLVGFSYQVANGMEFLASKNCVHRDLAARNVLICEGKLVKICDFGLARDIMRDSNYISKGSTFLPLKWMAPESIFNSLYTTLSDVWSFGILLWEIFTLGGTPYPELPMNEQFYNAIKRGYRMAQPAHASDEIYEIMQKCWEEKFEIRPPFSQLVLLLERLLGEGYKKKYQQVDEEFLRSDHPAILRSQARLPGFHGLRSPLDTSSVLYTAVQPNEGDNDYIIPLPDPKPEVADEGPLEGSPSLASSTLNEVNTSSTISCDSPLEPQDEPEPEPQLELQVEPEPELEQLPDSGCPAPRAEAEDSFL

[20] = biological target: Myotonin-protein kinase (Homo sapiens) (UniProt Q09013); conditions: Compound concentration 1000.0 nM
[21] = biological target: Serine/threonine-protein kinase 35 (Homo sapiens) (UniProt Q8TDR2); conditions: Compound concentration 1000.0 nM
[22] = biological target: MAO-B (amine oxidase [flavin-containing] B) (Homo sapiens, UniProt P27338); assay: MAO-B (h) recombinant enzyme Eurofins-Cerep enzyme and uptake assay; parameters: incubation time 60 min, incubation temperature 37°C, substrate/stimulus/tracer D-Luciferin derivative (4 µM); conditions: probe D-Luciferin derivative (4 µM), compound concentration 10 uM, read-out: % Inhibition of Control Values (Mean n=2)
[23] = biological target: Calcium/calmodulin-dependent protein kinase kinase 1 (Homo sapiens) (UniProt Q8N5S9); conditions: Compound concentration 1000.0 nM
[24] = biological target: NUAK family SNF1-like kinase 2 (Homo sapiens) (UniProt Q9H093); conditions: Compound concentration 1000.0 nM
[25] = biological target: Atypical kinase COQ8B, mitochondrial (Homo sapiens) (UniProt Q96D53); conditions: Compound concentration 1000.0 nM
[26] = biological target: Prostaglandin G/H synthase 2 (Homo sapiens) (UniProt P35354); assay: COX2(h) Eurofins-Cerep enzyme and uptake assay; conditions: Compound concentration 10.0 uM
[27] = biological target: cGMP-inhibited 3',5'-cyclic phosphodiesterase 3A (Homo sapiens) (UniProt Q14432); assay: PDE3A (h) Eurofins-Cerep enzyme and uptake assay; conditions: Compound concentration 10.0 uM
[28] = biological target: 1-phosphatidylinositol 3-phosphate 5-kinase (Homo sapiens) (UniProt Q9Y2I7); conditions: Compound concentration 1000.0 nM
1-phosphatidylinositol 3-phosphate 5-kinase (Homo sapiens), sequence (Q9Y2I7 whole entry): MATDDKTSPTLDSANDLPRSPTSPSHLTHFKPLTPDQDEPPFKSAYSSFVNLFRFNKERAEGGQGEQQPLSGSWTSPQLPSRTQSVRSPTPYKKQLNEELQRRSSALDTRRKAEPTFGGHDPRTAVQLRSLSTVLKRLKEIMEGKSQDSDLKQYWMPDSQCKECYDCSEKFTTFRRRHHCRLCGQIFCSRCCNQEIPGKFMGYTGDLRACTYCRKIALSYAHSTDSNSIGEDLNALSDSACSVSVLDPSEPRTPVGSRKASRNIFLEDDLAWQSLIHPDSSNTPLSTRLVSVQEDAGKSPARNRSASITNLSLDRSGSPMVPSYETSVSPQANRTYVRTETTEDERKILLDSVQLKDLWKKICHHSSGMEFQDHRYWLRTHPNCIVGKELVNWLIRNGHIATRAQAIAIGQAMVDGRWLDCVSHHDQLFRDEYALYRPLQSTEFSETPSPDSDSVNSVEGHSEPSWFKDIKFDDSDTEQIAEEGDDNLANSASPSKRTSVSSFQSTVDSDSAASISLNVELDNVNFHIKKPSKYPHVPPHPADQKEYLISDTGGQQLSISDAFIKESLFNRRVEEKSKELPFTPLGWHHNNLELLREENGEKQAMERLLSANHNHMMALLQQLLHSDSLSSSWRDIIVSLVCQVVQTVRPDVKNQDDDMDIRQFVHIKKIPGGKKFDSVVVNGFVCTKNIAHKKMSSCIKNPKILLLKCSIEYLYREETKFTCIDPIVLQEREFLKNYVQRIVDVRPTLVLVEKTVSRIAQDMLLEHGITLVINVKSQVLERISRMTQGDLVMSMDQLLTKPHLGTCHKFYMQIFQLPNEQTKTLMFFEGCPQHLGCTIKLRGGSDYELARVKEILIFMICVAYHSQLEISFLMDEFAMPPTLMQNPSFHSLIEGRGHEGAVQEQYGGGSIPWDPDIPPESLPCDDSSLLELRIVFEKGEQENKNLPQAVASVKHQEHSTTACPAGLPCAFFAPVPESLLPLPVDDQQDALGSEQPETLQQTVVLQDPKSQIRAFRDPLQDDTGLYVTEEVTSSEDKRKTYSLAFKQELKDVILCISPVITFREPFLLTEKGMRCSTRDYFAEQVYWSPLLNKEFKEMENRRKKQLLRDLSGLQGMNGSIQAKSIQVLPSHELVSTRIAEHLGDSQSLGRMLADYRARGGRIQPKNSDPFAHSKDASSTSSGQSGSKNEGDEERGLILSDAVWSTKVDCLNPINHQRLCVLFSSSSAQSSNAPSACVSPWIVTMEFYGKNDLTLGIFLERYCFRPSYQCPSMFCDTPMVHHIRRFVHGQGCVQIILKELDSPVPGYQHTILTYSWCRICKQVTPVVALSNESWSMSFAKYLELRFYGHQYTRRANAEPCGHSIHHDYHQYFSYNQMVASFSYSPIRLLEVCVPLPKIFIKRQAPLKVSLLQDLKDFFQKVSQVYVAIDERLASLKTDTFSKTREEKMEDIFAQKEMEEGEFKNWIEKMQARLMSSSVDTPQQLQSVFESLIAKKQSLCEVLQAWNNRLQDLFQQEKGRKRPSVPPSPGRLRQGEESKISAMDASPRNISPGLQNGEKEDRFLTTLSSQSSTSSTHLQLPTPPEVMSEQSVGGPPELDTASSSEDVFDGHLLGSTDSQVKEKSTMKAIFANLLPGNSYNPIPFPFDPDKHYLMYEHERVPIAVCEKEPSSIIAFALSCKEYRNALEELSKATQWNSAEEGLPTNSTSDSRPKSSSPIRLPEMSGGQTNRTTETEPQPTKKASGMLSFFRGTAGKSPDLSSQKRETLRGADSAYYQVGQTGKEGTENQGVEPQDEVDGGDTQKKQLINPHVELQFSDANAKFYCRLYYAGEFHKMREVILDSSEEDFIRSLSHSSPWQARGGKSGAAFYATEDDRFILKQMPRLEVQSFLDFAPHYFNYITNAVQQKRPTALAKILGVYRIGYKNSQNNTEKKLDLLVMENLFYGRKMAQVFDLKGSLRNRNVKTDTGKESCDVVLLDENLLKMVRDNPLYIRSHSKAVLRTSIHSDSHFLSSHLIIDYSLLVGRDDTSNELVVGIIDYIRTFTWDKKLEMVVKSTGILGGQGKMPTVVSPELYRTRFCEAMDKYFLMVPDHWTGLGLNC

[29] = biological target: Calcium/calmodulin-dependent protein kinase type 1 (Homo sapiens) (UniProt Q14012); conditions: Compound concentration 1000.0 nM
[30] = system: Receptor-type tyrosine-protein kinase FLT3 (Homo sapiens), P36888 [UNDEFINED MUTATION]; conditions: Compound concentration 1000.0 nM
[31] = biological target: Phosphorylase b kinase regulatory subunit alpha, liver isoform (Homo sapiens) (UniProt P46019); conditions: Compound concentration 1000.0 nM
[32] = biological target: Serine/threonine-protein kinase PRP4 homolog (Homo sapiens) (UniProt Q13523); conditions: Compound concentration 1000.0 nM
[33] = biological target: Receptor-interacting serine/threonine-protein kinase 2 (Homo sapiens) (UniProt O43353); conditions: Compound concentration 1000.0 nM
[34] = biological target: Rhodopsin kinase GRK7 (Homo sapiens) (UniProt Q8WTQ7); conditions: Compound concentration 1000.0 nM
[35] = biological target: Serine/threonine-protein kinase STK11 (Homo sapiens) (UniProt Q15831); conditions: Compound concentration 1000.0 nM
Serine/threonine-protein kinase STK11 (Homo sapiens), sequence (Q15831 whole entry): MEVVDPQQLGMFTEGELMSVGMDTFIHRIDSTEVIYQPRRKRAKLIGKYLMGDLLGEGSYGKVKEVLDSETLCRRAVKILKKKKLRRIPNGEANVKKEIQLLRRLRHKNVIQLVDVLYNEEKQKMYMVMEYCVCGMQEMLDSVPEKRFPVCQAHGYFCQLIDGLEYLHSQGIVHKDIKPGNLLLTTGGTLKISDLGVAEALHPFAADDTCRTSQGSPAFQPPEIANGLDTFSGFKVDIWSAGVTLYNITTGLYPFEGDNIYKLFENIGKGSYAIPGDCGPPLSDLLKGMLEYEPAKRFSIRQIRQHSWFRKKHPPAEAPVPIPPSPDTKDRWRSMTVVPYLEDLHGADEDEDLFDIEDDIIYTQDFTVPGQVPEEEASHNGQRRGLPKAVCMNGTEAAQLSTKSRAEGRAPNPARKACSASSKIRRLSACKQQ

[36] = biological target: Ephrin type-B receptor 3 (Homo sapiens) (UniProt P54753); conditions: Compound concentration 1000.0 nM
[37] = biological target: MAP/microtubule affinity-regulating kinase 4 (Homo sapiens) (UniProt Q96L34); conditions: Compound concentration 1000.0 nM

SMILES | residual activity [1] | residual activity [2] | residual activity [3] | residual activity [4] | residual activity [5] | residual activity [6] | residual activity [7] | residual activity [8] | residual activity [9] | residual activity [10] | residual activity [11] | residual activity [12] | residual activity [13] | residual activity [14] | % Inhibition of Control Specific Binding (Mean n=2) [15] | % Inhibition of Control Specific Binding (Mean n=2) [16] | residual activity [17] | residual activity [18] | residual activity [19] | residual activity [20] | also measured
CCCOc1ccc([C@@H]2[C@@H](C(=O)O)[C@H](c3ccc4c(c3)OCO4)CN2CC(=O)Nc2c(CC)cccc2CC)cc1 [A-1806262] | 92% | 92% | 100% | 100% | 73% | 85% | 91% | 100% | 80% | 91% | 70% | 94% | 97% | 99% | 54.1% | -0.2% | 99% | 83% | 100% | 86% | residual activity [21]: 98%; inhibition at 60 min, 10 µM [22]: -14.5%; residual activity [23]: 81%; residual activity [24]: 73%; residual activity [25]: 89%; % Inhibition of Control Values (Mean n=2) [26]: 34%; % Inhibition of Control Values (Mean n=2) [27]: 34.5%; residual activity [28]: 91%; residual activity [29]: 100%; residual activity [30]: 61%; residual activity [31]: 74%; residual activity [32]: 100%; residual activity [33]: 84%; residual activity [34]: 99%; residual activity [35]: 100%; residual activity [36]: 96%; residual activity [37]: 100%
CCCOc1ccc([C@H]2[C@H](C(=O)O)[C@@H](c3ccc4c(c3)OCO4)CN2CC(=O)Nc2c(CC)cccc2CC)cc1 [A-192621] | 74% | 100% | 82% | 100% | 65% | 93% | 80% | 90% | 81% | 74% | 100% | 91% | 99% | 88% | 31.9% | -2.2% | 92% | 58% | 100% | 81% | residual activity [21]: 92%; inhibition at 60 min, 10 µM [22]: -12.3%; residual activity [23]: 86%; residual activity [24]: 57%; residual activity [25]: 90%; % Inhibition of Control Values (Mean n=2) [26]: 44%; % Inhibition of Control Values (Mean n=2) [27]: 29%; residual activity [28]: 86%; residual activity [29]: 93%; residual activity [30]: 59%; residual activity [31]: 86%; residual activity [32]: 82%; residual activity [33]: 100%; residual activity [34]: 100%; residual activity [35]: 88%; residual activity [36]: 97%; residual activity [37]: 97%
